These results are taken from patent publication US9834534B2, “Neuraminidase inhibitor compounds, compositions and methods for the use thereof in anti-viral treatments” (THE UNIVERSITY OF BRITISH COLUMBIA, priority 2009, dated 2017).

As usually defined, the Kd is a measure of binding affinity in units of concentration. The term Ki denotes the dissociation constant of the complex between target and ligand, obtained from inhibition or displacement. The low end stands for tighter binding, the high end for weaker binding.

Several values for one entry are separate records, joined by “and”; a condition that tells them apart may be missing. Identical values can stand only once. Like-named read-outs stand apart in the source and are kept apart here.

In one series the target is H1N1 (Influenza A virus (H1N1), UniProt Q289M4).
The target in another series is H1N1 OsR (Influenza A virus (H1N1), UniProt Q289M4). The conditions noted are these: for ki: pH 7.6.
For a further series, the system named is Fukui H3N2 wt. In words: microbe, parasite or virus in culture. The class given is cell-based. The settings on record: Influenza A virus, H3N2, read-out: IC50 Fukui H3N2 wt.
A further series relates to sH1N1/01 wt. In words: microbe, parasite or virus in culture. The class given is cell-based. The settings on record: Influenza A virus, read-out: IC50 sH1N1/01 wt.
A further series relates to B/Perth wt. The series can be described thus: microbe, parasite or virus in culture. The class given is cell-based. The settings on record: Influenza B virus, read-out: sensitivity to inhibitors, B/Perth wt.
A further series relates to sH1N1/08 wt. In words: microbe, parasite or virus in culture. The class given is cell-based. The settings on record: Influenza A virus, read-out: IC50 sH1N1/08 wt.
Series [1] relates to B/Florida wt (B/Florida/4/2006). In words: microbe, parasite or virus in culture. The class given is cell-based. The conditions noted are these: Influenza B virus, read-out: IC50 B/Florida wt.
Series [2] has as its system Auckland pH1N1 wt (A/Auckland/3/2009). The series can be described thus: microbe, parasite or virus in culture. The class given is cell-based. The conditions noted are these: Influenza A virus, read-out: IC50 Auckland pH1N1 wt.
The target of series [3] is influenza sialidase (subtype N9) (Influenza A virus, UniProt P03472). In words: biochemical. The class given is biochemical.
The conditions of series [4]: 1 mg/kg.
In series [5] the test system is influenza A virus, A/HK/1/68 (H3N2). More on the design: species or system Balb/C mice (Mus musculus). The settings on record: mouse, in vivo.
The next series relates to A/Denver (H1N1). The class given is cell-based, influenza A virus.
Another series deals with MDCK cells. The settings on record: dog.
A further series relates to A/Brisbane NML (H3N2). The class given is cell-based, influenza A virus.
Series [6] relates to influenza B/Florida/04/06. The class given is cell-based.
Another series concerns A/New Caledonia (H1N1). The class given is cell-based, influenza A virus.
Series [7] relates to influenza A/Brisbane/10/2007 (H3N2). The series can be described thus: microbe, parasite or virus in culture. The class given is cell-based, influenza A virus.
Series [8] concerns influenza B/HongKong/5/72. In words: microbe, parasite or virus in culture. The class given is cell-based, influenza B virus. The settings on record: Influenza B virus, MDCK, read-out: Cytoprotective effect.
In series [9] the test system is influenza A/Denver/1/57 (H1N1). The series can be described thus: microbe, parasite or virus in culture. The conditions noted are these: Influenza A virus, H1N1, MDCK, read-out: Cytoprotective effect. The class given is cell-based, influenza A virus.

Chain of H1N1 OsR (Q289M4 whole entry, looked up): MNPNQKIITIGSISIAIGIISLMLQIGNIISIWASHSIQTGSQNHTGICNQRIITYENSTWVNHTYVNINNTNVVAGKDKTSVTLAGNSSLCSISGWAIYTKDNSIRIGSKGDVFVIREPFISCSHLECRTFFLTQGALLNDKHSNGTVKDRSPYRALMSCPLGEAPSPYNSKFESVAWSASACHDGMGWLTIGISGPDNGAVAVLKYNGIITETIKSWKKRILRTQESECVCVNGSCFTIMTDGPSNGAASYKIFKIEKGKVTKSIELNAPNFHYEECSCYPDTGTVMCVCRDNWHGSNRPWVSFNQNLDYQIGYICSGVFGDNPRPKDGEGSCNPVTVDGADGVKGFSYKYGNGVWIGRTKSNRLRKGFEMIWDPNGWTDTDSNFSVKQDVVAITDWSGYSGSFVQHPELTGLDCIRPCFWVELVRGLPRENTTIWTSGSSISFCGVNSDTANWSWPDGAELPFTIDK
Chain of influenza sialidase (subtype N9) (P03472 whole entry, looked up): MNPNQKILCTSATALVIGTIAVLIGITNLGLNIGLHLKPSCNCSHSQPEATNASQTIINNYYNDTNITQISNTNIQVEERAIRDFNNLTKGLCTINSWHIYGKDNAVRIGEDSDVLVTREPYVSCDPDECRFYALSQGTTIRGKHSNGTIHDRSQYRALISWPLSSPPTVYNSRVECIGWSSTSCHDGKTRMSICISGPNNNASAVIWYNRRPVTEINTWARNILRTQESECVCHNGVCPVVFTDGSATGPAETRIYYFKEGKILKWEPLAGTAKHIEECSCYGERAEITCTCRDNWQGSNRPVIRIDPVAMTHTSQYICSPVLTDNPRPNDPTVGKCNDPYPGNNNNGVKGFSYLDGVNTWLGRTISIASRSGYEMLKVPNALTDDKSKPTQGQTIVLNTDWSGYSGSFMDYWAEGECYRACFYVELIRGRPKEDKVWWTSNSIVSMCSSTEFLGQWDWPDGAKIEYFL
Chain of H1N1 (Q289M4 whole entry, looked up): as the sequence (Q289M4 whole entry, looked up) above

On to `CC(=O)NC1C(N)C(F)C(F)(C(=O)O)OC1[C@H](O)[C@H](O)CO` (stereo in doubt) [Compound 2eq3eq4NH2, 5-Acetamido-2,4,5-trideoxy-4-amino-2α, 3β-difluoro-α-D-erythro-L-gluco-nonulo-pyranosonate], for which the “Half life for reactivation” value on H1N1 came out at 4 h. On H1N1 OsR, the “Half life for reactivation” value is 2 h and the ki stood at 4.7 ± 0.1 min⁻¹.

In the case of `CC(=O)NC1C(NC(=N)N)C(F)C(F)(C(=O)O)OC1[C@H](O)[C@H](O)CO` (stereo partly drawn) [4-G3Feq diF SA, 5-Acetamido-2,4,5-trideoxy-2α, 3β-difluoro-4-guanidino-α-D-erythro-L-gluco-nonulopyranosonate], the IC50 with Fukui H3N2 wt came to 24900 nM; in the series with sH1N1/01 wt, 12.6 nM; in the series on B/Perth wt, 4.5 nM; in the series on sH1N1/08 wt, 6.8 nM; in series [1], 2 nM; in [2], 4 nM. The “Half life for reactivation” value on H1N1 OsR was determined as 9 h. For the same compound, the ki on H1N1 OsR came out at 1.5 ± 0.16 min⁻¹.

Turning to `CC(=O)N[C@@H]1[C@@H](N)[C@@H](F)[C@](F)(C(=O)O)O[C@H]1[C@H](O)[C@H](O)CO` [Compound 4, (2R,3R)-4-Amino-2,4-dideoxy-2,3-difluorosialic acid], the “half time for the full inactivation of the sialidase” value in series [3] was “ca. 10 min”. In addition, the “half time for the full reactivation of the inactivated sialidase” value in series [3] stood at 4.8 h. This compound had a Kd in [3] (30° C., pH 7.6) of 4000 nM. Besides, in [3] (30° C., pH 7.6), the inhibition constant (Ki) is 93 nM and 93.2 nM. For the same compound, in [3] (30° C., pH 7.6), the khyd is 0.0024 min⁻¹. In addition, the “% weight loss mean +/− SD” value is listed as 2.68 +/− 1.76% in series [4] (mouse, in vivo) and 16.02 +/− 2.07% in series [5] (1 mg/kg). Besides, in series [4] (n = 5), the “number of animals remaining” value amounted to 5. For the same compound, in [5], the “survival compared to the untreated control group” value was “somewhat extend survival”. For the same compound, the “concentration of antiviral at which a confluent monolayer of MDCK cells was protected” value in the series with A/Denver (H1N1) is reported as <12.854^A μM; in the series on A/Brisbane NML (H3N2) it was 51.415^B μM; in the series on A/New Caledonia (H1N1) it was <12.854^A μM. In addition, in the series with MDCK cells, the Toxicity was 3.6 µg/mL. Besides, the Cytoprotective effect is given as 947 ng/mL in [6] (Replicate 1), 1074 ng/mL in series [6] (Replicate 2) and 9.2 ng/mL in series [7]. In addition, the minimal effective concentration is 0.0069 µg/mL in series [7] (Influenza A virus, H3N2, MDCK, read-out: Cytoprotective effect); 1.78 µg/mL in series [8]; 0.888 µg/mL in series [9].
